Laboratory results as given in ChEMBL document CHEMBL1201862, “PubChem BioAssay data set” (2004).
Activity calls are given as the source filed them.

Columns and labels:
[1] = target: T1, DNA repair protein RAD52 homolog (Homo sapiens, UniProt P43351); assay type: functional, biochemical
T1 sequence (P43351 whole entry): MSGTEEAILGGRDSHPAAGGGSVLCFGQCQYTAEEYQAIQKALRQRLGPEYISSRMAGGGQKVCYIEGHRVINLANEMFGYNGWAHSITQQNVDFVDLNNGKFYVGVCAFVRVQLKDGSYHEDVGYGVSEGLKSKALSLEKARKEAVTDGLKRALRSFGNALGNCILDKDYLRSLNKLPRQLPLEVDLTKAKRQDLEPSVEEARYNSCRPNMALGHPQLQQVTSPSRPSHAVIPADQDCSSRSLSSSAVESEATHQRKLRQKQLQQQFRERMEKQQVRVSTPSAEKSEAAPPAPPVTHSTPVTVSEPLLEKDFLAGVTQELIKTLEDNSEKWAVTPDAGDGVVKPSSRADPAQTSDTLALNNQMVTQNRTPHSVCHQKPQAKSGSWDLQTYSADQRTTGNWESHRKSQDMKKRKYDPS

[2] = target: T2, DNA repair and recombination protein RAD54-like (Homo sapiens, UniProt Q92698); test: RAD54 Holliday junction migration blockers – biochemical, fluorescence, cherry-picked samples, dose series, confirmation (AID 651657); assay type: functional
T2 sequence (Q92698 whole entry): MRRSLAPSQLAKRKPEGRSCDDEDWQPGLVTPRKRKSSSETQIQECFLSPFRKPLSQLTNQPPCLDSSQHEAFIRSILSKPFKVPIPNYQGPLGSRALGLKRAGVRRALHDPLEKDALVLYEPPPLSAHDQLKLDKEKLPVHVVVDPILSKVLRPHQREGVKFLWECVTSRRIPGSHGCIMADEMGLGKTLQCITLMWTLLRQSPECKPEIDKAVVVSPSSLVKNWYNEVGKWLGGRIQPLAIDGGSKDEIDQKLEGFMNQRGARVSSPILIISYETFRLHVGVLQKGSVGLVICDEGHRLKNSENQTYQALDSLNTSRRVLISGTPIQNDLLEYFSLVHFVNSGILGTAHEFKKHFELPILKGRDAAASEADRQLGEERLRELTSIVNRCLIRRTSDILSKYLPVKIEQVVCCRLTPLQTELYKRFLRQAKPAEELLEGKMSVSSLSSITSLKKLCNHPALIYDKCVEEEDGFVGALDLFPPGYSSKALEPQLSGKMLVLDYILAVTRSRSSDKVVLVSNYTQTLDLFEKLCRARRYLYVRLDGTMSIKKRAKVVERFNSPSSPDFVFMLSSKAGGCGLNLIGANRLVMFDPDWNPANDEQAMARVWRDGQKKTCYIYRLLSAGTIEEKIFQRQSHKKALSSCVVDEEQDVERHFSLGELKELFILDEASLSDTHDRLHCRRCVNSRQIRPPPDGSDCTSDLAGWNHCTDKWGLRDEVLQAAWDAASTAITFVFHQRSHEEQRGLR

[3] = cytotoxicity toward MDA-MB-231 breast cancer cells – cell-based, CellTiter-Glo luminescence, cherry-pick, cytotoxicity control for RAD54 inhibitor project, dose response (AID 651692); assay type: functional

Measured: AC50

COc1cc(C(=O)NC2CCN(C)CC2)ccc1Nc1ncc2c(n1)N(C1CCCCC1)CCC(=O)N2C
active: [1] 5.86 µM | [2] 12 µM | [3] 32.5 µM
